{"source": "patent US20250290117A1", "about": "“MOLECULAR PHENOTYPIC ANTIMICROBIAL SUSCEPTIBILITY TESTING” (priority 2024, published 2025)", "key": {"[1]": {"tested_on": "P. aeruginosa", "assay": "Traditional culture-based antimicrobial susceptibility test", "assay_type": "cell-based, Pseudomonas aeruginosa", "conditions": "P. aeruginosa isolate MRSN1938", "procedure": "Table 5 illustrates the results of an example antimicrobial agent susceptibility test of the current application versus a traditional culture-based antimicrobial agent susceptibility test for multiple specimens with different pathogens, in accordance with one or more embodiments of the disclosure. These specimens were tested with direct PCR (e.g., no extraction DNA purification step prior to PCR). As in Tables 1, 2, and 3, the results of the test of the current application are similar to the results from the traditional test.\nResult Reporting to Healthcare Providers. The results from the antimicrobial exposure are reported to the ordering healthcare provider. This information can be utilized by the healthcare provider when selecting an antimicrobial regimen for their individual patient based on these individual specimen results and patient specific factors. […] The current standard of care for antimicrobial susceptibility testing involves the growth, isolation, and exposure of pathogens to antimicrobials. This traditional culture and sensitivity process can take multiple days to obtain results, limiting the ability of healthcare providers to receive timely results to make actionable changes in patient care or management. Healthcare providers desire a method to obtain antimicrobial susceptibility results with quicker turn-around-time. This application discloses a molecular-based phenotypic antimicrobial susceptibility method which involves pathogen exposure to a panel of antimicrobial agents at their specified minimum inhibitory concentration breakpoints for sensitivity. This method allows for more timely antimicrobial susceptibility results."}, "[2]": {"tested_on": "Escherichia coli", "assay": "Molecular phenotypic antimicrobial susceptibility test (extraction or DNA purification prior to PCR)", "assay_type": "cell-based", "procedure": "(§1) Detection of Molecular Phenotypic Antimicrobial Susceptibility. Disclosed herein are the methods for the detection of phenotypic antimicrobial susceptibility via molecular methods. The present invention describes how a specimen 100 with a known microbial load is incubated and then exposed to a panel of antimicrobial agents to determine sensitivity (prevention of growth) or resistance (allowance of growth) to the specific antimicrobial agents tested utilizing molecular methods.\nSample Collection. Specimens 100 are collected from patients using sterile collection processes that are employed in routine clinical care. Specimens are transported to the testing facility in boric acid preservative.\nPreparation of the Specimens for Testing. […] The process for pathogen isolation includes steps of harvesting the pathogen (e.g., via centrifugation), isolating pathogen DNA via a DNA isolation and/or purification kit, and performing PCR on the pathogen DNA via PCR components (e.g., primers, enzymes, buffers) as would be known to the skilled artisan. […] This aliquot is used for antimicrobial susceptibility testing if indicated based on the pathogen detection results. […] Specimens 100 with lower pathogen loads could also be utilized in the antibiotic susceptibility phase of testing with or without a longer incubation period.\n(§2) Preparation of Antimicrobial Susceptibility Testing Plates. Antimicrobial solutions are prepared at known concentrations. The specific antimicrobials and their concentrations are selected based on the pathogen of interest and the described antimicrobial resistance breakpoints for that specimen pathogen and antimicrobial combination. These antimicrobials have been selected based on those commonly utilized by healthcare providers in routine clinical care for the specific type of suspected infection. The number and types of antimicrobials utilized can be customized based on the infection source, pathogen detected, patient-specific factors such as allergies or other health conditions (e.g., chronic kidney disease or concurrent medication use), or healthcare provider preferences such as antimicrobial availability or cost.\nThe antimicrobial solutions are prepared in liquid culture media (such as Muller Hinton Broth) to achieve the desired antimicrobial concentration and are then stored at −80° C. until use. For a given specimen, each antimicrobial is tested at a single or multiple antimicrobial concentration(s) which is its established breakpoints for sensitivity. The antimicrobial solutions are prepared and plated out for each specific pathogen. […] This allows for evaluation of pathogen load when no antimicrobial is present.\nSpecimen Exposure to Antimicrobial Agents. The 1 mL aliquot of the specimen 100 previously mixed with culture media and incubated is obtained. Using optical density measurements as a guide, the specimen 100 is diluted to 0.5 McFarland.\nAntimicrobial exposure plates are typically placed into an incubator for 12-16 hours.\nNucleic Acid Amplification of Antimicrobial Agent Exposed Pathogens. The antimicrobial exposure plate is removed after the period of incubation. The specimen then undergoes a purification or lysis step. For example, the specimen may undergo a purification step (e.g., magnetic bead-based or other separation protocol to isolate genetic material). In another example, the specimen may undergo a cell lysis step. For example, buffer (e.g., lysis buffer) may be added and incubated in the thermal cycler for preparation for direct PCR. Next, the specimen may undergo a polymerase chain reaction (PCR) testing protocol, whereby a semi-quantitative PCR method is utilized. This may be completed either with or without a specific extraction protocol step. The pathogens can be individually targeted and detected, or a universal genetic sequence can be utilized to detect the antimicrobial susceptibility of the specimen as a whole."}, "[3]": {"tested_on": "P. aeruginosa", "assay": "Molecular phenotypic antimicrobial susceptibility test with direct PCR (no extraction DNA purification step)", "assay_type": "cell-based, Pseudomonas aeruginosa", "procedure": "as §1\nSample Collection. Specimens 100 are collected from patients using sterile collection processes that are employed in routine clinical care. Specimens are transported to the testing facility in boric acid preservative. Specimens 100 are subsequently divided into a first sample 104 and a second sample 108.\nPreparation of the Specimens for Testing. The specimens 100 are put through a pathogen identification process using PCR technology (e.g., using the first sample 104). The process for pathogen isolation includes steps of harvesting the pathogen (e.g., via centrifugation), isolating pathogen DNA via a DNA isolation and/or purification kit, and performing PCR on the pathogen DNA via PCR components (e.g., primers, enzymes, buffers) as would be known to the skilled artisan. Simultaneously, an additional aliquot of the same specimen (e.g., the second sample 108) is placed with liquid culture media and incubated for 4-6 hours. This aliquot is used for antimicrobial susceptibility testing if indicated based on the pathogen detection results. After pathogen identification is completed and if more than 10,000 cells/mL of bacteria (e.g., eligible bacteria) are detected in the source specimen, the second sample 108 then enters the antimicrobial susceptibility phase of testing. Specimens 100 with lower pathogen loads could also be utilized in the antibiotic susceptibility phase of testing with or without a longer incubation period.\nas §2\nThe antimicrobial solutions are prepared in liquid culture media (such as Muller Hinton Broth) to achieve the desired antimicrobial concentration and are then stored at −80° C. until use. For a given specimen, each antimicrobial is tested at a single or multiple antimicrobial concentration(s) which is its established breakpoints for sensitivity. The antimicrobial solutions are prepared and plated out for each specific pathogen. This allows ease of use on the day of testing after defrosting the plate 112. Table 1, which illustrates the results of molecular phenotypic antimicrobial susceptibility testing when more than one organism is present in the source specimen, provides an example of an antimicrobial plate 112 prepared for this purpose. Of note, control wells containing only culture media are present on all plates 112. This allows for evaluation of pathogen load when no antimicrobial is present.\nSpecimen Exposure to Antimicrobial Agents. The 1 mL aliquot of the specimen 100 previously mixed with culture media and incubated is obtained. Using optical density measurements as a guide, the specimen 100 is diluted to 0.5 McFarland. […]"}, "[4]": {"tested_on": "Escherichia coli", "assay": "Traditional culture-based antimicrobial susceptibility test", "assay_type": "cell-based", "excerpt": "Table 3 illustrates the results of an example antimicrobial agent susceptibility test of the current application versus a traditional culture-based antimicrobial agent susceptibility test for multiple Escherichia coli isolates, in accordance with one or more embodiments of the disclosure. These specimens underwent extraction or DNA purification prior to PCR. As in Tables 1 and 2, the results of the test of the current application are similar to the results from the traditional test. […]\nTable 8 illustrates the results of an example antimicrobial agent susceptibility test of the current application versus a traditional culture-based antimicrobial agent susceptibility test for a low level positive with <10,000 cells/mL in the original specimen. These specimens were tested with direct PCR (e.g., no extraction DNA purification step prior to PCR) after 16 hours of incubation. As in Tables 1, 2, 3, 5, and 7, the results of the test are similar to the traditional test. […]"}}, "data": [{"smiles": "CC(C)(O/N=C(\\C(=O)N[C@@H]1C(=O)N2C(C(=O)[O-])=C(C[n+]3ccccc3)CS[C@H]12)c1csc(N)n1)C(=O)O", "note": "[Ceftazidime]", "values": [{"measurement": "Traditional Culture Result", "setting": "[1]", "result": "Sensitive"}, {"measurement": "Ct at Sensitive Breakpoint", "setting": "[2]; E. coli isolate 1, Ct at control (average) 21.238", "result": 25.605}, {"measurement": "Molecular Antimicrobial Susceptibility Result", "setting": "[2]; E. coli isolate 1, at sensitive breakpoint", "result": "Sensitive (Antimicrobial wells with pathogen load detected below the control wells (typically >2 cycle thresholds later) may be reported as Sensitive)"}, {"measurement": "Ct at Sensitive Breakpoint", "setting": "[2]; E. coli isolate 2, Ct at control (average) 21.270", "result": 22.508}, {"measurement": "Molecular Antimicrobial Susceptibility Result", "setting": "[2]; E. coli isolate 2, at sensitive breakpoint", "result": "Sensitive (Antimicrobial wells with pathogen load detected below the control wells (typically >2 cycle thresholds later) may be reported as Sensitive)"}, {"measurement": "Ct at Sensitive Breakpoint", "setting": "[2]; E. coli isolate 3, Ct at control (average) 22.0995", "result": 22.583}, {"measurement": "Molecular Antimicrobial Susceptibility Result", "setting": "[2]; E. coli isolate 3, at sensitive breakpoint", "result": "Resistant"}, {"measurement": "Ct at Sensitive Breakpoint", "setting": "[3]; P. aeruginosa isolate MRSN1938, Ct at control (average) 12.031", "result": 24.596}, {"measurement": "Molecular Antimicrobial Susceptibility Result", "setting": "[3]; P. aeruginosa isolate MRSN1938, at sensitive breakpoint", "result": "Sensitive (Antimicrobial wells with pathogen load detected below the control wells (typically >2 cycle thresholds later) may be reported as Sensitive)"}, {"measurement": "Traditional Culture Result", "setting": "[4]; E. coli isolate 1 (Table 3)", "result": "Sensitive"}, {"measurement": "Traditional Culture Result", "setting": "[4]; E. coli isolate 2 (Table 3)", "result": "Sensitive"}, {"measurement": "Traditional Culture Result", "setting": "[4]; E. coli isolate 3 (Table 3)", "result": "Sensitive"}]}]}
